How the values were obtained:
Experiment in all cases: relative viability (nuclei count vs DMSO), 5 days (fraction); higher = more cells survive
PC-14 = tested on: PC-14
Method in brief: (§1)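 Lung cancer cell lines in 1536-well plates got either a single drug or a fixed anchor-drug dose together with five library-drug doses (not always all listed) in √10 steps, by pin tool, on the day after seeding. Nuclei were counted after 5 days, and relative viability is the treated-to-vehicle ratio of nuclei counts. Values are medians of duplicate plates.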

NCI-H1993 = tested on: NCI-H1993
Method in brief: as §1

NCI-H647 = tested on: NCI-H647
Method in brief: as §1

LOU-NH91 = tested on: LOU-NH91
Method in brief: as §1

COR-L23 = tested on: COR-L23
Method in brief: as §1

NCI-H1793 = tested on: NCI-H1793
Method in brief: as §1

NCI-H2085 = tested on: NCI-H2085
Method in brief: as §1

NCI-H441 = tested on: NCI-H441
Method in brief: as §1

NCI-H520 = tested on: NCI-H520
Method in brief: as §1

HCC-44 = tested on: HCC-44
Method in brief: as §1

ABC-1 = tested on: ABC-1
Method in brief: as §1

NCI-H2347 = tested on: NCI-H2347
Method in brief: as §1

RERF-LC-KJ = tested on: RERF-LC-KJ
Method in brief: as §1

NCI-H2405 = tested on: NCI-H2405
Method in brief: as §1

NCI-H1563 = tested on: NCI-H1563
Method in brief: as §1

NCI-H2170 = tested on: NCI-H2170
Method in brief: as §1

EKVX = tested on: EKVX
Method in brief: as §1

NCI-H3122 = tested on: NCI-H3122
Method in brief: as §1

NCI-H1734 = tested on: NCI-H1734
Method in brief: as §1

201T = tested on: 201T
Method in brief: as §1

NCI-H2023 = tested on: NCI-H2023
Method in brief: as §1

EPLC-272H = tested on: EPLC-272H
Method in brief: as §1

COc1cc(N2CCC(C(N)=O)CC2)ccc1Nc1nc(N)c(Cl)c(Nc2ccccc2S(=O)(=O)C(C)C)n1 [HG-5-88-01] + Cc1nc(NC(=O)N2CCC[C@H]2C(N)=O)sc1-c1ccnc(C(C)(C)C(F)(F)F)c1 [Alpelisib] (partner 2 µM)
relative viability (PC-14; first compound 0.04 µM): 0.884
relative viability (PC-14; first compound 0.1265 µM): 0.849
relative viability (PC-14; first compound 0.4 µM): 0.882
relative viability (PC-14; first compound 1.265 µM): 0.89
relative viability (PC-14; first compound 4 µM): 0.851
relative viability (NCI-H1993; first compound 0.04 µM): 0.709
relative viability (NCI-H1993; first compound 0.1265 µM): 0.596
relative viability (NCI-H1993; first compound 0.4 µM): 0.566
relative viability (NCI-H1993; first compound 1.265 µM): 0.682
relative viability (NCI-H1993; first compound 4 µM): 0.751
relative viability (NCI-H647; first compound 0.04 µM): 1.09
relative viability (NCI-H647; first compound 0.1265 µM): 1.15
relative viability (NCI-H647; first compound 1.265 µM): 1.09
relative viability (NCI-H647; first compound 4 µM): 1.4
relative viability (LOU-NH91; first compound 0.04 µM): 0.713
relative viability (LOU-NH91; first compound 0.1265 µM): 0.67
relative viability (LOU-NH91; first compound 0.4 µM): 0.659
relative viability (LOU-NH91; first compound 1.265 µM): 0.545
relative viability (LOU-NH91; first compound 4 µM): 0.528
relative viability (COR-L23; first compound 0.04 µM): 0.774
relative viability (COR-L23; first compound 0.1265 µM): 0.79
relative viability (COR-L23; first compound 0.4 µM): 0.68
relative viability (COR-L23; first compound 1.265 µM): 0.524
relative viability (COR-L23; first compound 4 µM): 0.462
relative viability (NCI-H1793; first compound 0.1265 µM): 0.613
relative viability (NCI-H1793; first compound 0.4 µM): 0.912
relative viability (NCI-H1793; first compound 1.265 µM): 0.45
relative viability (NCI-H1793; first compound 4 µM): 0.723
relative viability (NCI-H2085; first compound 0.04 µM): 1.05
relative viability (NCI-H2085; first compound 0.1265 µM): 1
relative viability (NCI-H2085; first compound 0.4 µM): 0.908
relative viability (NCI-H2085; first compound 1.265 µM): 0.973
relative viability (NCI-H2085; first compound 4 µM): 0.902
relative viability (NCI-H441; first compound 0.04 µM): 0.752
relative viability (NCI-H441; first compound 0.1265 µM): 0.77
relative viability (NCI-H441; first compound 0.4 µM): 0.845
relative viability (NCI-H441; first compound 1.265 µM): 0.84
relative viability (NCI-H441; first compound 4 µM): 0.893
relative viability (NCI-H520; first compound 0.04 µM): 0.85
relative viability (NCI-H520; first compound 0.1265 µM): 0.94
relative viability (NCI-H520; first compound 0.4 µM): 0.884
relative viability (NCI-H520; first compound 1.265 µM): 1.01
relative viability (NCI-H520; first compound 4 µM): 1.03
relative viability (HCC-44; first compound 0.04 µM): 0.858
relative viability (HCC-44; first compound 0.1265 µM): 0.824
relative viability (HCC-44; first compound 0.4 µM): 0.701
relative viability (HCC-44; first compound 1.265 µM): 0.68
relative viability (HCC-44; first compound 4 µM): 0.471
relative viability (ABC-1; first compound 0.04 µM): 0.919
relative viability (ABC-1; first compound 0.1265 µM): 0.885
relative viability (ABC-1; first compound 0.4 µM): 0.855
relative viability (ABC-1; first compound 1.265 µM): 0.713
relative viability (ABC-1; first compound 4 µM): 0.993
relative viability (NCI-H2347; first compound 0.04 µM): 1.09
relative viability (NCI-H2347; first compound 0.1265 µM): 1.14
relative viability (NCI-H2347; first compound 0.4 µM): 1.1
relative viability (NCI-H2347; first compound 1.265 µM): 0.984
relative viability (NCI-H2347; first compound 4 µM): 0.973
relative viability (RERF-LC-KJ; first compound 0.04 µM): 0.838
relative viability (RERF-LC-KJ; first compound 0.1265 µM): 0.675
relative viability (RERF-LC-KJ; first compound 0.4 µM): 0.935
relative viability (RERF-LC-KJ; first compound 1.265 µM): 0.551
relative viability (RERF-LC-KJ; first compound 4 µM): 0.874
relative viability (NCI-H2405; first compound 0.04 µM): 0.749
relative viability (NCI-H2405; first compound 0.1265 µM): 0.832
relative viability (NCI-H2405; first compound 0.4 µM): 0.726
relative viability (NCI-H2405; first compound 1.265 µM): 0.418
relative viability (NCI-H2405; first compound 4 µM): 0.794
relative viability (NCI-H1563; first compound 0.04 µM): 1.05
relative viability (NCI-H1563; first compound 0.1265 µM): 0.877
relative viability (NCI-H1563; first compound 0.4 µM): 0.909
relative viability (NCI-H1563; first compound 1.265 µM): 0.844
relative viability (NCI-H1563; first compound 4 µM): 0.993
relative viability (NCI-H2170; first compound 0.04 µM): 0.761
relative viability (NCI-H2170; first compound 0.1265 µM): 0.833
relative viability (NCI-H2170; first compound 0.4 µM): 0.795
relative viability (NCI-H2170; first compound 1.265 µM): 0.46
relative viability (NCI-H2170; first compound 4 µM): 0.803
relative viability (EKVX; first compound 0.04 µM): 0.888
relative viability (EKVX; first compound 0.1265 µM): 0.914
relative viability (EKVX; first compound 0.4 µM): 0.823
relative viability (EKVX; first compound 4 µM): 0.814
relative viability (NCI-H3122; first compound 0.04 µM): 0.624
relative viability (NCI-H3122; first compound 0.1265 µM): 0.259
relative viability (NCI-H3122; first compound 0.4 µM): 0.245
relative viability (NCI-H3122; first compound 1.265 µM): 0.195
relative viability (NCI-H3122; first compound 4 µM): 0.2
relative viability (NCI-H1734; first compound 0.04 µM): 0.633
relative viability (NCI-H1734; first compound 0.1265 µM): 0.657
relative viability (NCI-H1734; first compound 0.4 µM): 0.727
relative viability (NCI-H1734; first compound 1.265 µM): 0.713
relative viability (NCI-H1734; first compound 4 µM): 0.799
relative viability (201T; first compound 0.04 µM): 0.99
relative viability (201T; first compound 0.1265 µM): 1.06
relative viability (201T; first compound 0.4 µM): 1.06
relative viability (201T; first compound 1.265 µM): 0.974
relative viability (201T; first compound 4 µM): 1.09
relative viability (NCI-H2023; first compound 0.04 µM): 0.659
relative viability (NCI-H2023; first compound 0.1265 µM): 0.54
relative viability (NCI-H2023; first compound 0.4 µM): 0.539
relative viability (NCI-H2023; first compound 1.265 µM): 0.358
relative viability (NCI-H2023; first compound 4 µM): 0.474
relative viability (EPLC-272H; first compound 0.04 µM): 0.931
relative viability (EPLC-272H; first compound 0.1265 µM): 0.838
relative viability (EPLC-272H; first compound 0.4 µM): 1.12
relative viability (EPLC-272H; first compound 1.265 µM): 0.804
relative viability (EPLC-272H; first compound 4 µM): 0.253
